Values of other authors, collected in patent US20190203207A1, “Anabolic Enhancers for Ameliorating Neurodegeneration” (priority 2016, published 2019).
“Also recorded” adds a separate entry of the source.

Test system: insulin/mTOR signaling pathway

## insulin
Insulin injection, four RP mouse models
  GLUT1 and HIF1a levels: increased levels
Systemic insulin, four RP mouse models (Punzo et al.)
  Cone survival / cone degeneration: encouraged cone survival; also recorded: delay degeneration of cones
